Results: patent EP3184514A1, “AUTOPHAGY INHIBITORS” (Deutsches Krebsforschungszentrum, priority 2015, dated 2017)
Like-named read-outs stand apart in the source and are kept apart here.

Assays:
[1] = target: T1, LC3B (Homo sapiens, UniProt Q9GZQ8); assay: AlphaScreen interaction displacement assay (GST-LC3B / biotin-LIRtide); format: binding
T1 construct: made in house; host or cells: E. coli Rosetta (DE3)
Description: The AlphaScreen assay contained 50 mM Tris (pH 7.5), 100 mM NaCl, 0.01% Tween 20, 2 mM DTT, 1 % DMSO and 2-30 nM GST-LC3B and biotin-LIRtide 2-30 nM. The concentrations of GST-LC3B and biotin-LIRtide were experimentally chosen from a cross-titration assay exploring the different combinations of for each batch of protein used and when a new batch of buffer was prepared.
A gene encoding for human LC3B protein inserted in a pET-GST expression vector was used as a template. Rosetta (DE3) competent cells were transformed by started procedure, plated on an LB agar plate with ampicillin (100 µg/ml) and left overnight at 37 °C. Overnight culture was prepared from a single colony and shaken at 180 rpm at 37 °C. LB medium with ampicillin was inoculated with overnight culture (10 ml per 500 ml of LB) and shaken until the optical density at 600 nm (OD600) reached a value of approximately 0.6. Protein expression was then induced with 400 µM IPTG and further incubated for 4 hours. Bacterial culture was centrifuged for 20 minutes at 6000 rpm at 4 °C. The pellet was then resuspended in lysis buffer (20 mM TRIS-HCl pH 7.5, 10 mM EDTA, 5 mM EGTA, 150 mM NaCl, 0.5 % NP40, 1 % Triton X-100, 1 mM DTT, 2 mg/ml lysozyme, 0.05 U/µl benzonase, 1x protease inhibitor cocktail). Lysate was then stored at -20 °C over night. Sample was thawed in water bath and sonicated on ice (40 % amplitude, 30 seconds pulse/30 seconds pause cycle). Lysate was centrifuged at 10000xg at 4 °C for half an hour. Meanwhile, 500 µl of glutathione sepharose beads was equilibrated with lysis buffer and then added to the supernatant. The mixture was incubated and rotated at room temperature for 2 hours. After binding of the protein to the beads, beads were spun down at 500xg at 4 °C for 5 minutes. Pellet was then washed with cold wash buffer at least four times (20 mM Tris-HCl pH 7.5, 10 mM EDTA, 5 mM EGTA, 150 mM NaCl, 1 mM DTT), dried and stored in 5 % glycerol at 4 °C.

[2] = tested on: LC3B; assay: cellular autophagy screening: LC3B spots by immunocytochemistry and automated confocal imaging; format: cell-based; conditions: relative to negative DMSO control, 100 µM, 1 hour; for LC3B Inhibition cell based Fold increase of LC3B spots: Table 2a; for LC3B inhibition cell based Fold increase of LC3B spots [DMSO control 1.0]: Table 1-a, n.e. means no effect
Description: For screening purposes, cells were seeded in 384 well plates and left over night for attachment.
Afterwards, medium was removed and 4 % (w/v) paraformaldehyde (PFA) in PBS buffer was added to the cells for 20 minutes, incubated at room temperature. Cells were permeabilized with 0.1 % (v/v) Triton X-100 for 10 min at room temperature and washed with PBS. Cells were blocked with 3 % (w/v) bovine serum albumin (BSA) in PBS for 45 minutes at 37 °C and then incubated with anti-LC3B (PM036, MBL) or anti-p62 (PM045 or M162-3, MBL) primary antibody diluted in 0.3 % BSA (1:2000 or 1:500) for 1.5-2 hours at 37 °C. Cells were washed three times with PBS.
384 well plates were then analyzed with an automated confocal microscope Opera (PerkinElmer) enabling high throughput high content screening image analysis. […] A water immersion 60x objective was used for optical slicing and stacking (5x0.5 µm stacks). […] Signal was detected with a fast gated CCD camera. Acapella software (PerkinElmer) is an algorithm based high content imaging and analysis software used in multi-parametric multiplex assays. Acapella was used to follow cell viability (i.e. number of cells) and the number of LC3B and p62 spots per cell.
The LC3B protein is a ubiquitin-like protein that can be conjugated to phosphatidylethanolamine (PE) in the membrane of the incipient autophagosome. The nonlipidated and lipidated forms are usually referred to as LC3B-I and LC3B-II, respectively. […] Autophagic flux is often inferred on the basis of LC3B-II turnover, measured by western blot (WB) or immunofluorescence (IF) in the presence and absence of lysosomal degradation. […] Lysosomal degradation can be prevented e.g. through the use of compounds that neutralize the lysosomal pH such as Bafilomycin A1 (BafA1) or chloroquine (CQ). […] An additive or supra-additive effect in LC3B-II levels (WB) and LC3B-positive punctae numbers (IF) may indicate that the treatment enhances autophagic flux. […] This assay can be complemented by simultaneous monitoring of autophagosomal substrates or autophagosomal substrate receptors (e.g. SQSTM1/p62) by WB and/or IF. For example, an increase in LC3B-II levels in combination with the accumulation of SQSTM1/p62 is indicative of a blockage of the autophagy pathway at terminal stages.

[3] = Table 2a, read-out: LC3B Inhibition cell free IC50
[4] = Table 1-a, n.e. means no effect, read-out: LC3B inhibition cell free IC50
[5] = Table 1-a, n.e. means no effect

IC50 [1, 4]	Structure (SMILES)	IC50 [1, 3]	LC3B Inhibition cell based Fold increase of LC3B spots [2]	LC3B inhibition cell based Fold increase of LC3B spots [DMSO control 1.0] [2]	LC3B inhibition cell free IC50 [1, 5]
	CC(C)=CCc1cc(C(=O)Nc2c(O)c3ccc(O)c(C)c3oc2=O)ccc1O [Compound 2-1, N-(4,7-dihydroxy-8-methyl-2-oxo-2H-chromen-3-yl)-4-hydroxy-3-(3-methylbut-2-en-1-yl)benzamide]	87 µM			
	COC1C(OC(N)=O)C(OC(C)=O)C(Oc2ccc3c(O)c(NC(=O)c4ccc(OC(C)=O)c(CC=C(C)C)c4)c(=O)oc3c2C)OC1(C)C (stereo not drawn) [Compound 2-2]	19.3 µM	1.5		
	COC1C(OC(N)=O)C(O)C(Oc2ccc3c(O)c(NC(=O)c4ccc(O)c(CCC(C)C)c4)c(=O)oc3c2C)OC1(C)C (stereo not drawn) [Compound 2-4, 5-hydroxy-6-((4-hydroxy-3-(4-hydroxy-3-isopentylbenzamido)-8-methyl-2-oxo-2H-chromen-7-yl)oxy)-3-methoxy-2,2-dimethyltetrahydro-2H-pyran-4-y/carbamate]	4.8 µM	1.2		
	COC1C(OC(N)=O)C(OC(C)=O)C(Oc2ccc3c(O)c(NC(=O)C(Cc4ccccc4)NC(=O)OC(C)(C)C)c(=O)oc3c2C)OC1(C)C (stereo not drawn) [Compound 2-7]	145 µM	1.0		
	Cc1c(O)ccc2c(O)c(NC(=O)C(Cc3ccccc3)NC(=O)OC(C)(C)C)c(=O)oc12 (stereo not drawn) [Compound 2-8]	122 µM	1.0		
	Cc1c(O)ccc2c(O)c(NC(=O)C(CC(C)C)NC(=O)OC(C)(C)C)c(=O)oc12 (stereo not drawn) [Compound 2-9]	73.3 µM	1.2		
	Cc1c(O)ccc2c(O)c(NC(=O)C(CCc3ccccc3)NC(=O)OC(C)(C)C)c(=O)oc12 (stereo not drawn) [Compound 2-10]	155 µM	1.0		
	Cc1c(O)ccc2c(O)c(NC(=O)c3cccc(-c4ccccc4)c3)c(=O)oc12 [Compound 2-11]	63 µM	1.1		
	Cc1c(O)ccc2c(O)c(NC(=O)c3cccc(Oc4ccccc4)c3)c(=O)oc12 [Compound 2-12]	54 µM	1.1		
23.6 µM	Fc1ccc(CSC2=NCN(Cc3cccnc3)CN2)cc1 [Compound I-3, 6-((4-fluorobenzyl)thio)-3-(pyridin-3-ylmethyl)-1,2,3,4-tetrahydro-1,3,5-triazine]			1.8	
19.5 µM	c1ccc(CSC2=NCN(Cc3cccnc3)CN2)cc1 [Compound I-4, 6-(benzylthio)-3-(pyridin-3-ylmethyl)-1,2,3,4-tetrahydro-1,3,5-triazine]			1.7	
30.9 µM	FC(F)(F)c1ccc(CSC2=NCN(Cc3cccnc3)CN2)cc1 [Compound I-5, 3-(pyridin-3-ylmethyl)-6-((4-(trifluoromethyl)benzyl)thio)-1,2,3,4-tetrahydro-1,3,5-triazine]			3.2	
12.3 µM	COc1ccc(CSC2=NCN(Cc3cccnc3)CN2)cc1 [Compound I-6, 6-((4-methoxybenzyl)thio)-3-(pyridin-3-ylmethyl)-1,2,3,4-tetrahydro-1,3,5-triazine]			1.8	
26.6 µM	CC(C)CCNC(=O)c1ccc(CSC2=NCN(Cc3cccnc3)CN2)cc1 [Compound I-7, N-isopentyl-4-(((5-(pyridin-3-ylmethyl)-1,4,5,6-tetrahydro-1,3,5-triazin-2-yl)thio)methyl)benzamide]			3.1	
21 µM	Brc1cccc(CSC2=NCN(Cc3cccnc3)CN2)c1 [Compound I-8, 6-((3-bromobenzyl)thio)-3-(pyridin-3-ylmethyl)-1,2,3,4-tetrahydro-1,3,5-triazine]			3.0	
18.5 µM	COc1cccc(CSC2=NCN(Cc3cccnc3)CN2)c1 [Compound I-9, 6-((3-methoxybenzyl)thio)-3-(pyridin-3-ylmethyl)-1,2,3,4-tetrahydro-1,3,5-triazine]			n.e.	
1 µM	c1ccc(Oc2cccc(CSC3=NCN(Cc4cccnc4)CN3)c2)cc1 [Compound I-10, 6-((3-phenoxybenzyl)thio)-3-(pyridin-3-ylmethyl)-1,2,3,4-tetrahydro-1,3,5-triazine]			6.1	
12.2 µM	CC(C)CCNC(=O)c1cccc(CSC2=NCN(Cc3cccnc3)CN2)c1 [Compound I-11, N-isopentyl-3-(((5-(pyridin-3-ylmethyl)-1,4,5,6-tetrahydro-1,3,5-triazin-2-yl)thio)methyl)benzamide]			n.e.	
	Fc1ccc(CN2CN=C(SCc3ccc(Br)cc3)NC2)cc1 [Compound I-14, 6-((4-bromobenzyl)thio)-3-(4-fluorobenzyl)-1,2,3,4-tetrahydro-1,3,5-triazine]			5.8	n.e
	Fc1ccc(CN2CN=C(SCc3cccc(Oc4ccccc4)c3)NC2)cc1F [Compound I-18, 3-(3,4-difluorobenzyl)-6-((3-phenoxybenzyl)thio)-1,2,3,4-tetrahydro-1,3,5-triazine]				n.e
	Fc1cccc(CN2CN=C(SCc3ccc(Br)cc3)NC2)c1 [Compound I-19, 6-((4-bromobenzyl)thio)-3-(3-fluorobenzyl)-1,2,3,4-tetrahydro-1,3,5-triazine]				n.e.
	Fc1cccc(CN2CN=C(SCc3cccc(Oc4ccccc4)c3)NC2)c1 [Compound I-20, 3-(3-fluorobenzyl)-6-((3-phenoxybenzyl)thio)-1,2,3,4-tetrahydro-1,3,5-triazine]				n.e.
	CCN(CC)CCCC(C)Nc1ccnc2cc(Cl)ccc12 (stereo not drawn) [chloroquine, reference compound]		4.4	4.4	
	CCC(=O)N1CCN(c2ccc(-n3c(=O)ccc4cnc5ccc(-c6cnc7ccccc7c6)cc5c43)cc2C(F)(F)F)CC1 [torin 1, reference compound]		3.1	3.1	

Structure (SMILES)	IC50 [1, 4]	IC50 [1, 3]	LC3B Inhibition cell based Fold increase of LC3B spots [2]	LC3B inhibition cell based Fold increase of LC3B spots [DMSO control 1.0] [2]	LC3B inhibition cell free IC50 [1, 5]
Clc1ccc(CSC2=NCN(Cc3cccnc3)CN2)cc1 [Compound I-2, 6-((4-chlorobenzyl)thio)-3-(pyridin-3-ylmethyl)-12,3,4-tetrahydro-1,3,5-triazine]	16 µM			3.2	
COC(=O)[C@H](CC(C)C)NC(=O)c1cccc(CSC2=NCN(Cc3cccnc3)CN2)c1 [Compound I-12, methyl(3-(((5-(pyridin-3-ylmethyl)-1,4,5,6-tetrahydro-1,3,5-triazin-2-yl)thio)methyl)benzoyl)leucinate]	8.9 µM			5.0	
